Measurements taken from PubChem BioAssay (NCI).
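At the GI50, growth is halved. TGI is the concentration that stops growth completely.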

Legend:
Assay in all cases: inhibition of tumour cell growth, NCI panel, 384-well format
[1] = test system: 786-0 renal
[2] = test system: A498 renal
[3] = test system: A549 NSCLC
[4] = test system: ACHN renal
[5] = test system: CAKI-1 renal
[6] = test system: CCRF-CEM leukemia
[7] = test system: COLO 205 colon
[8] = test system: DU-145 prostate
[9] = test system: EKVX NSCLC
[10] = test system: HCC-2998 colon
[11] = test system: HCT-116 colon
[12] = test system: HCT-15 colon
[13] = test system: HL-60(TB) leukemia
[14] = test system: HOP-62 NSCLC
[15] = test system: HOP-92 NSCLC
[16] = test system: HS 578T breast
[17] = test system: HT29 colon
[18] = test system: IGROV1 ovarian
[19] = test system: K-562 leukemia
[20] = test system: KM12 colon
[21] = test system: LOX IMVI melanoma
[22] = test system: M14 melanoma
[23] = test system: MALME-3M melanoma
[24] = test system: MCF7 breast
[25] = test system: MDA-MB-231 breast
[26] = test system: MDA-MB-435 melanoma
[27] = test system: MDA-MB-468 breast
[28] = test system: MOLT-4 leukemia
[29] = test system: NCI-H226 lung
[30] = test system: NCI-H23 lung
[31] = test system: NCI-H322M lung
[32] = test system: NCI-H460 NSCLC
[33] = test system: NCI-H522 lung
[34] = test system: NCI/ADR-RES ovarian
[35] = test system: OVCAR-3 ovarian
[36] = test system: OVCAR-4 ovarian
[37] = test system: OVCAR-5 ovarian
[38] = test system: OVCAR-8 ovarian
[39] = test system: PC-3 prostate
[40] = test system: RPMI-8226 leukemia
[41] = test system: RXF 393 renal
[42] = test system: SF-268 CNS
[43] = test system: SF-295 CNS
[44] = test system: SF-539 CNS
[45] = test system: SK-MEL-2 melanoma
[46] = test system: SK-MEL-28 melanoma
[47] = test system: SK-MEL-5 melanoma
[48] = test system: SK-OV-3 ovarian
[49] = test system: SN12C renal
[50] = test system: SNB-19 CNS
[51] = test system: SNB-75 CNS
[52] = test system: SR leukemia
[53] = test system: SW-620 colon
[54] = test system: T-47D breast
[55] = test system: TK-10 renal
[56] = test system: U251 glioblastoma
[57] = test system: UACC-62 melanoma
[58] = test system: UO-31 renal

For `Cc1ccc(C(=O)N(CCCN)[C@@H](c2nc3cc(Cl)ccc3c(=O)n2Cc2ccccc2)C(C)C)cc1`, the GI50 [1] was under 10 nM, the TGI [1] was 1420 nM and the GI50 [2] was under 10 nM. For the same molecule, the TGI [2] was 1810 nM, the GI50 [3] was under 10 nM and the TGI [3] was 1800 nM. The GI50 [4] was 1140 nM, the TGI [4] was 2370 nM and the GI50 [5] was under 10 nM. The TGI [5] was 1920 nM, the GI50 [6] was under 10 nM and the TGI [6] was under 10 nM. The GI50 [7] was under 10 nM, the TGI [7] was under 10 nM and the GI50 [8] was under 10 nM. For the same molecule, the TGI [8] was under 10 nM, the GI50 [9] was under 10 nM and the TGI [9] was 1220 nM. It also gave a GI50 [10] of under 10 nM, a TGI [10] of 112 nM and a GI50 [11] of under 10 nM. The TGI [11] was 1200 nM, the GI50 [12] was under 10 nM and the TGI [12] was 1280 nM. For the same molecule, the GI50 [13] was under 10 nM, the TGI [13] was under 10 nM and the GI50 [14] was under 10 nM. For the same molecule, the TGI [14] was 1950 nM, the GI50 [15] was under 10 nM and the TGI [15] was 1700 nM. For the same molecule, the GI50 [16] was under 10 nM, the TGI [16] was under 10 nM and the GI50 [17] was under 10 nM. For the same molecule, the TGI [17] was 1000 nM, the GI50 [18] was 1100 nM and the TGI [18] was 2320 nM. The GI50 [19] was under 10 nM, the TGI [19] was under 10 nM and the GI50 [20] was under 10 nM. It also gave a TGI [20] of 927 nM, a GI50 [21] of under 10 nM and a TGI [21] of 1530 nM. For the same molecule, the GI50 [22] was under 10 nM, the TGI [22] was under 10 nM and the GI50 [23] was under 10 nM. For the same molecule, the TGI [23] was 1890 nM, the GI50 [24] was under 10 nM and the TGI [24] was 1270 nM. It also gave a GI50 [25] of under 10 nM, a TGI [25] of 1780 nM and a GI50 [26] of under 10 nM. For the same molecule, the TGI [26] was under 10 nM, the GI50 [27] was under 10 nM and the TGI [27] was under 10 nM. It also gave a GI50 [28] of under 10 nM, a TGI [28] of under 10 nM and a GI50 [29] of 1120 nM. For the same molecule, the TGI [29] was 2340 nM, the GI50 [30] was under 10 nM and the TGI [30] was 1080 nM. The GI50 [31] was under 10 nM, the TGI [31] was 1730 nM and the GI50 [32] was under 10 nM. For the same molecule, the TGI [32] was under 10 nM, the GI50 [33] was under 10 nM and the TGI [33] was under 10 nM. For the same molecule, the GI50 [34] was 109 nM, the TGI [34] was 263 nM and the GI50 [35] was under 10 nM. For the same molecule, the TGI [35] was under 10 nM, the GI50 [36] was under 10 nM and the TGI [36] was 1890 nM. It also gave a GI50 [37] of under 10 nM, a TGI [37] of 1250 nM and a GI50 [38] of under 10 nM. It also gave a TGI [38] of 1200 nM, a GI50 [39] of under 10 nM and a TGI [39] of 1620 nM. It also gave a GI50 [40] of under 10 nM, a TGI [40] of under 10 nM and a GI50 [41] of under 10 nM. For the same molecule, the TGI [41] was under 10 nM, the GI50 [42] was under 10 nM and the TGI [42] was 1650 nM. It also gave a GI50 [43] of under 10 nM, a TGI [43] of under 10 nM and a GI50 [44] of under 10 nM. The TGI [44] was 20.2 nM, the GI50 [45] was under 10 nM and the TGI [45] was under 10 nM. For the same molecule, the GI50 [46] was 1350 nM, the TGI [46] was 2640 nM and the GI50 [47] was under 10 nM. It also gave a TGI [47] of 14.7 nM, a GI50 [48] of under 10 nM and a TGI [48] of 1540 nM. It also gave a GI50 [49] of under 10 nM, a TGI [49] of 1790 nM and a GI50 [50] of under 10 nM. For the same molecule, the TGI [50] was 1740 nM, the GI50 [51] was under 10 nM and the TGI [51] was 1950 nM. The GI50 [52] was under 10 nM, the TGI [52] was under 10 nM and the GI50 [53] was under 10 nM. It also gave a TGI [53] of 1060 nM, a GI50 [54] of under 10 nM and a TGI [54] of 1300 nM. It also gave a GI50 [55] of 94.9 nM, a TGI [55] of 2070 nM and a GI50 [56] of under 10 nM. The TGI [56] was 1430 nM, the GI50 [57] was under 10 nM and the TGI [57] was 1400 nM. It also gave a GI50 [58] of 1080 nM and a TGI [58] of 2290 nM.
